This is an account of results in US8765972B2 (priority 2009, dated 2014).

One data set deals with PARP-2 (Homo sapiens (Human), UniProt Q9UGN5). Conditions: read-out: PARP-2 (DC50); probe compound P1.
In data set [1] the test system is PAR formation in HeLa cells. The data set is described as follows: cells. The following applies: Homo sapiens, read-out: PAR assay (IC50).
Description: Cellular PAR levels were measured by immunocytochemistry, and quantified using an ArrayScan vTi instrument (Cellomics Thermo Scientific). […] Test compounds were then added at the required concentration for 30'. […] After 3 washes in PBS, wells incubated in PBS (w/v) 5% FBS 0.05% Tween20 containing 2 μg/mL Cy2-conjugated Goat anti mouse secondary antibody (Amersham Pharmacia Biotech cat. […] At least 10 fields, corresponding to at least 900 cells, were read for each well. […] X is the logarithm of concentration. IC50 is the response; IC50 starts at Bottom and goes to Top with a sigmoid shape.
A further data set deals with PARP-3 (Homo sapiens (Human), UniProt Q9Y6F1). The following applies: read-out: PARP-3 (DC50); probe compound P1.
Chain of PARP-3 (Q9Y6F1 whole entry): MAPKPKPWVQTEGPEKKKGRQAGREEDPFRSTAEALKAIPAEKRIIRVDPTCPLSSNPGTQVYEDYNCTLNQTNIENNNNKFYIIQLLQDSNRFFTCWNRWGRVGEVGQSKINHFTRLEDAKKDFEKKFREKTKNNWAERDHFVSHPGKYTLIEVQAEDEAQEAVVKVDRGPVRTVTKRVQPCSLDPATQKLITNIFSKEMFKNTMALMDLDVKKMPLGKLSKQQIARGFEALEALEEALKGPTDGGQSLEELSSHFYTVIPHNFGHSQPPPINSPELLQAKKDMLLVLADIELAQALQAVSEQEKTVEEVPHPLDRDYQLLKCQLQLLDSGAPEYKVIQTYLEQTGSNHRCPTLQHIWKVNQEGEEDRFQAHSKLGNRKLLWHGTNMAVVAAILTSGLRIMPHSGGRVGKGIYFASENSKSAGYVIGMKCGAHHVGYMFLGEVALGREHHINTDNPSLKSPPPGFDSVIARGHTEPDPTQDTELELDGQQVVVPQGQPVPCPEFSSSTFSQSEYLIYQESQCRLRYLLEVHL
Data set [2] has as its target T1, PARP-1 (Homo sapiens (Human), UniProt P09874). Conditions: for DC50: read-out: PARP-1 (DC50); for Kd: read-out: PARP-1 (Kd).
Description: (§1) Affinity evaluation of the tested compounds and their selectivity with respect to the different PARP isoforms of interest was assessed in a displacement assay.
(§2) The polarization signal can be measured, e.g., by a plate reader such as the Saphire2 (Tecan). The displacement ability of the test compound is in correlation with the compound affinity for the NAD pocket of the enzyme.
(§3) In all of the experiments, the polarization signal was measured using a Saphire2 plate reader (Tecan). Data analysis was performed using Dynafit software. In particular, titration data were fitted to the following equilibria: Enzyme+probe<==>Complex Enzyme-probe, while displacement data were fitted to the following equilibria: Enzyme+probe<==>Complex Enzyme-probe, Enzyme+Compound<==>Complex Enzyme-Compound, whereby binding of probe and compound on the enzyme are mutually exclusive (pure competitive mechanism). Displacement data were also fitted using Excell spreadsheet (Microsoft Inc. Seattle, USA) to a four parameter logistic model (4PL), or Hill-Slope model to calculate DC50s where the DC50 value represents the compound concentration at which the polarization signal is diminished by 50% compared to untreated controls.
(§4) In agreement, affinity binding constants (KD) were determined by fitting with a pure competitive mechanism. KD values, are the average of three independent experiments.
Data set [3] deals with T1, PARP-1. The data set is described as follows: biochemical. The following applies: PARP-1 (Kd), probe compound P3.
Description: as §1, §2, §3, §4
The next data set in a line: in vivo. The following applies: male, Balb, Nu/Nu, mouse, 10 mg/kg; for Vd / clearance: iv; for AUC(0-t) / half-life: po.
For data set [4] the following is noted: male, Balb, Nu/Nu, mouse, in vivo, 10 mg/kg.
Description: (§5) The compounds were formulated in 10% tween 80/dextrose for intravenous bolus administration while oral administrations were performed using the compounds formulated in 0.5% methylcellulose. […] Plasma samples were prepared by plasma proteins precipitation adding 200 μL of methanol to 10 μL of plasma in a 96 well plate. […] The supernatant was considered as final extract and injected onto the LC-MS-MS system (HPLC system: Hewlett Packard 1100 series using Atlantis HILIC Silica 50*2.1 mm 5.0 μm analytical column; MS instrument: Perkin Elmer SCIEX API 2000 and ionization performed with Turbo Ion Spray in positive ion mode). Lower limit of quantification is 5.0 ng/mL, upper limit of quantification is 10000 ng/mL. Analysis was performed using the Watson package (version 6.4.0.04) and Excel spreadsheet (Microsoft Inc. Seattle, USA). Non-compartmental method (linear trapezoidal rule and linear regression analysis of natural log-transformed plasma concentrations vs. time data) was used. After intravenous dosing, Co was set equal to Co 083 Absolute bioavailability (F) was calculated from the ratio of average oral to IV (intravenous) dose-normalized plasma AUC (area under curve) values.

SMILES strings stand for the structures. Read-outs that look alike come from different tables or passages of the source.

Chain of PARP-2 (Q9UGN5 whole entry): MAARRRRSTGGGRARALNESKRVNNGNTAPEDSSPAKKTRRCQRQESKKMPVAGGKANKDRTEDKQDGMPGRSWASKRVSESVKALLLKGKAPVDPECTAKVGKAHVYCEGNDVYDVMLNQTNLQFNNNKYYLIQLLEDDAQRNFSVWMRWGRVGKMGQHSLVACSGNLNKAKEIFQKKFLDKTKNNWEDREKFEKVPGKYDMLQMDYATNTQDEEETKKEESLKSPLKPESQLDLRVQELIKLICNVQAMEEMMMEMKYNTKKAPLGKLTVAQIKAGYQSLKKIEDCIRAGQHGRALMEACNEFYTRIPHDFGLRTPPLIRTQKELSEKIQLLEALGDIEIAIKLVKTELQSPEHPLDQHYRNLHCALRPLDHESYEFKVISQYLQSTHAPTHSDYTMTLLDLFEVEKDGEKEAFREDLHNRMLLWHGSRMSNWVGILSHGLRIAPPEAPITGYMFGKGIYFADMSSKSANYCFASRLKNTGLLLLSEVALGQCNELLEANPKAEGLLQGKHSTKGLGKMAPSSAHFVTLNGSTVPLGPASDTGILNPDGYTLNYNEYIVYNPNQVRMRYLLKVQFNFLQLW
T1 sequence (P09874 whole entry): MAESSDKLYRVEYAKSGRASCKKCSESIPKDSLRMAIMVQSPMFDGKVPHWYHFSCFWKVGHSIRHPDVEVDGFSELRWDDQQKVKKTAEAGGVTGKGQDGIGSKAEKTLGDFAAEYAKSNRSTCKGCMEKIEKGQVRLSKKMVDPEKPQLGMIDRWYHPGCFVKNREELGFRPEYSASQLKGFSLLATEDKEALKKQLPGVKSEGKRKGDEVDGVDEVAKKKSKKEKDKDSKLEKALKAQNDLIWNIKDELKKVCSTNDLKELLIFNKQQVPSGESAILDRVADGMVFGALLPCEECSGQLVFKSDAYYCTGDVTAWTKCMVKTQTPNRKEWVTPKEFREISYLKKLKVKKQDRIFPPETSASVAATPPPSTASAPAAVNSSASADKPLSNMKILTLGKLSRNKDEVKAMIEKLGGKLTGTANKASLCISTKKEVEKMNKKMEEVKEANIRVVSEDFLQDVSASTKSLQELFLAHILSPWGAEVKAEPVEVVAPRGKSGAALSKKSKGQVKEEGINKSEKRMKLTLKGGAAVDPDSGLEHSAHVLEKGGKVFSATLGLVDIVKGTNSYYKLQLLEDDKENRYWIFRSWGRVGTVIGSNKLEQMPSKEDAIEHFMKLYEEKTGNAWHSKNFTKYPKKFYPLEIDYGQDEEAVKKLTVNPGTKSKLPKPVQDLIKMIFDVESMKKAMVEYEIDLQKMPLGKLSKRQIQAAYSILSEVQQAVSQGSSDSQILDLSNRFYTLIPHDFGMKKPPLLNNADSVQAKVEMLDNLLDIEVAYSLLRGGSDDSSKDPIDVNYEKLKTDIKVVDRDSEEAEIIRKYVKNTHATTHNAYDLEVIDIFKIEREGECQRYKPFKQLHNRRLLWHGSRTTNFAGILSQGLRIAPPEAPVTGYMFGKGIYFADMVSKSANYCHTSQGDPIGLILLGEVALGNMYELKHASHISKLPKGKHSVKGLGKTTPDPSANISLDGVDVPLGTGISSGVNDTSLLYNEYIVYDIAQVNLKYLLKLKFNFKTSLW
Description for PARP-2: as §1, §2, §3, §4
Description for PARP-3: as §1, §2, §3, §4
Description for in vivo: as §5

In the case of `C[C@@H]1c2cccc(C(N)=O)c2C(=O)N1C1CCN(C2CCCCC2)CC1` [Compound 5, (1R)-2-(1-Cyclohexylpiperidin-4-yl)-1-methyl-3-oxo-2,3-dihydro-1H-isoindole-4-carboxamide], the values for the DC50 at PARP-2, on PARP-3 and at PARP-1 [2] were > 10 µM, > 10 µM and 2.11 µM, respectively. The IC50 (in general, the point on the concentration scale where inhibition reaches its midpoint) in data set [1] is 6.3 µM. Moreover, the Kd (usually a measure of binding affinity in units of concentration) on PARP-1 [2] came to 0.78 µM.

In the case of `CC1c2cccc(C(N)=O)c2C(=O)N1C1CCN(C2CCC(F)(F)CC2)CC1` (stereo not shown) [Compound 6, 2-[1-(4,4-Difluorocyclohexyl)piperidin-4-yl]-1-methyl-3-oxo-2,3-dihydro-1H-isoindole-4-carboxamide], the DC50 at PARP-2 is > 10 µM; on PARP-3 it was > 10 µM; at PARP-1 [2] (probe compound P1), < 0.25 µM. Moreover, in data set [1], the IC50 turned out to be 1.3 µM. Moreover, the Kd on PARP-1 [2] (probe compound P3) was 0.03 µM.

`CC1c2cccc(C(N)=O)c2C(=O)N1C1CCN(Cc2ccc3[nH]ccc3c2)CC1` (stereo not shown) [Compound 7, 2-[1-(1H-indol-5-ylmethyl)piperidin-4-yl]-1-methyl-3-oxo-2,3-dihydro-1H-isoindole-4-carboxamide]: the DC50 at PARP-2 was > 10 µM; on PARP-3, 0.52 µM; on PARP-1 [2] (probe compound P1), < 0.25 µM. Moreover, the IC50 in data set [1] was found to be 7 µM. Further, the Kd at PARP-1 [2] (probe compound P3) was determined as 0.03 µM.

On to `CC1c2cccc(C(N)=O)c2C(=O)N1C1CCN(Cc2cn(C(C)C)c3ccccc23)CC1` (stereo not shown) [Compound 8, 1-Methyl-3-oxo-2-(1-{[1-(propan-2-yl)-1H-indol-3-yl]methyl}piperidin-4-yl)-2,3-dihydro-1H-isoindole-4-carboxamide], for which the DC50 on PARP-2 was > 10 µM; at PARP-3, 3.1 µM; at PARP-1 [2] (probe compound P1), 0.44 µM. In addition, the Kd at PARP-1 [2] (probe compound P3) came to 0.25 µM.

On to `CC1c2cccc(C(N)=O)c2C(=O)N1C1CCN(Cc2ccccn2)CC1` (stereo not shown) [Compound 9, 1-Methyl-3-oxo-2-[1-(pyridin-2-ylmethyl)piperidin-4-yl]-2,3-dihydro-1H-isoindole-4-carboxamide], for which the DC50 at PARP-2 is > 10 µM; at PARP-3 it was > 10 µM; at PARP-1 [2] (probe compound P1), 0.35 µM. Moreover, in data set [1], the IC50 is 3 µM. Further, at PARP-1 [2] (probe compound P3), the Kd was determined as 0.17 µM.

As to `CC1c2cccc(C(N)=O)c2C(=O)N1C1CCN(Cc2ccco2)CC1` (stereo not shown) [Compound 15, 2-[1-(Furan-2-ylmethyl)piperidin-4-yl]-1-methyl-3-oxo-2,3-dihydro-1H-isoindole-4-carboxamide], the values for the DC50 on PARP-2, at PARP-3 and on PARP-1 [2] (probe compound P1) were > 10 µM, > 10 µM and < 0.25 µM, respectively. Also, at PARP-1 [2] (probe compound P3), the Kd came to 0.04 µM.

For `CC1c2cccc(C(N)=O)c2C(=O)N1C1CCN(C2CCC2)CC1` (stereo not shown) [Compound 18, 2-(1-Cyclobutylpiperidin-4-yl)-1-methyl-3-oxo-2,3-dihydro-1H-isoindole-4-carboxamide], the DC50 at PARP-2 came out at 1.82 µM. Besides, in data set [1], the IC50 is 2.7 µM. Further, at PARP-3, the DC50 is > 10 µM. Moreover, the Kd on PARP-1 [3] is < 0.01 µM. Further, in “in vivo”, the Vd (in general, a proportionality between amount in the body and measured concentration, not a real space) turned out to be 3.84 L/kg; the clearance (usually the volume of plasma or blood freed of the substance per unit of time) came to 47 mL/min/kg; the AUC(0-t) (in general, the area under the concentration-time curve up to a stated or last time point) came to 7.28 µM·h; the half-life (usually the time in which the quantity being followed falls by half) is 1.8 h. The “C-max (oral)” value in data set [4] is 3.9 µM. Moreover, the DC50 at PARP-1 [2] (probe compound P1) is < 0.25 µM.

For `CC1c2cccc(C(N)=O)c2C(=O)N1C1CCN(Cc2ccc[nH]2)CC1` (stereo not shown) [Compound 19, 1-Methyl-3-oxo-2-[1-(1H-pyrrol-2-ylmethyl)piperidin-4-yl]-2,3-dihydro-1H-isoindole-4-carboxamide], on PARP-2, the DC50 is > 10 µM. Besides, in data set [1], the IC50 was 2.5 µM. In addition, the DC50 at PARP-3 stood at 3.04 µM. In “in vivo”, the Vd stood at 3.9 L/kg, the clearance worked out at 88 mL/min/kg, the AUC(0-t) stood at 4.28 µM·h and the half-life was 0.8 h. For the same compound, in data set [4], the “C-max (oral)” value came to 2.85 µM. Besides, on PARP-1 [2] (probe compound P1), the DC50 was < 0.25 µM. Moreover, the Kd on PARP-1 [2] (probe compound P3) turned out to be 0.02 µM.

As to `CC1c2cccc(C(N)=O)c2C(=O)N1C1CCN(Cc2cccs2)CC1` (stereo not shown) [Compound 20, 1-Methyl-3-oxo-2-[1-(thiophen-2-ylmethyl)piperidin-4-yl]-2,3-dihydro-1H-isoindole-4-carboxamide], the DC50 on PARP-2 was > 10 µM; at PARP-3, 3.86 µM; on PARP-1 [2] (probe compound P1), < 0.25 µM. Besides, the Kd on PARP-1 [3] was < 0.01 µM.

On to `CC1c2cccc(C(N)=O)c2C(=O)N1C1CCN(CC2CC=CCC2)CC1` (stereo not shown) [Compound 22, 2-[1-(Cyclohex-3-en-1-ylmethyl)piperidin-4-yl]-1-methyl-3-oxo-2,3-dihydro-1H-isoindole-4-carboxamide], for which the figures for the DC50 at PARP-2, on PARP-3 and on PARP-1 [2] (probe compound P1) were > 10 µM, > 10 µM and < 0.25 µM, respectively. The Kd on PARP-1 [2] (probe compound P3) stood at 0.04 µM.

As to `CC1c2cccc(C(N)=O)c2C(=O)N1C1CCN(Cc2ncc[nH]2)CC1` (stereo not shown) [Compound 26, 2-[1-(1H-Imidazol-2-ylmethyl)piperidin-4-yl]-1-methyl-3-oxo-2,3-dihydro-1H-isoindole-4-carboxamide], the values for the DC50 at PARP-2, on PARP-3 and at PARP-1 [2] (probe compound P1) were 6.88 µM, 2.83 µM and < 0.25 µM, respectively. Also, the Kd on PARP-1 [2] (probe compound P3) was 0.07 µM.

`CC1c2cccc(C(N)=O)c2C(=O)N1c1ccc(N2CCOCC2)cc1` (stereo not shown) [Compound 35, 1-Methyl-2-[4-(morpholin-4-yl)phenyl]-3-oxo-2,3-dihydro-1H-isoindole-4-carboxamide]: the figures for the DC50 on PARP-2, on PARP-3 and at PARP-1 [2] (probe compound P1) were > 10 µM, > 10 µM and < 0.25 µM, respectively. Besides, the IC50 in data set [1] was determined as 4.9 µM. Besides, on PARP-1 [2] (probe compound P3), the Kd stood at 0.04 µM.

As to `CC1c2cccc(C(N)=O)c2C(=O)N1c1ccc(N2CCCCC2)cc1` (stereo not shown) [Compound 36, 1-Methyl-3-oxo-2-[4-(piperidin-1-yl)phenyl]-2,3-dihydro-1H-isoindole-4-carboxamide], the DC50 on PARP-2 is > 10 µM; at PARP-3 it was > 10 µM; at PARP-1 [2] (probe compound P1), < 0.25 µM. The IC50 in data set [1] was 9 µM. At PARP-1 [2] (probe compound P3), the Kd is 0.08 µM.

Take `CC1c2cccc(C(N)=O)c2C(=O)N1c1ccc(CN2CCCCC2)cc1` (stereo not shown) [Compound 38, 1-Methyl-3-oxo-2-[4-(piperidin-1-ylmethyl)phenyl]-2,3-dihydro-1H-isoindole-4-carboxamide]: the DC50 is > 10 µM at PARP-2, > 10 µM on PARP-3 and 1.11 µM on PARP-1 [2] (probe compound P1). Moreover, the IC50 in data set [1] stood at 5.3 µM.

Regarding `CC1c2cc(F)cc(C(N)=O)c2C(=O)N1C1CCN(C2CCC(F)(F)CC2)CC1` (stereo not shown) [Compound 126, 2-[1-(4,4-Difluorocyclohexyl)piperidin-4-yl]-6-fluoro-1-methyl-3-oxo-2,3-dihydro-1H-isoindole-4-carboxamide], the DC50 was > 10 µM at PARP-2, > 10 µM on PARP-3 and < 0.25 µM at PARP-1 [2] (probe compound P1). For the same compound, in data set [1], the IC50 stood at 0.27 µM.

As to `CC1c2cc(F)cc(C(N)=O)c2C(=O)N1C1CCN(C2CCCCC2)CC1` (stereo not shown) [Compound 127, 2-(1-Cyclohexylpiperidin-4-yl)-6-fluoro-1-methyl-3-oxo-2,3-dihydro-1H-isoindole-4-carboxamide], the DC50 was > 10 µM on PARP-2, > 10 µM at PARP-3 and 0.41 µM on PARP-1 [2] (probe compound P1). Also, the IC50 in data set [1] was 0.64 µM. The Kd at PARP-1 [2] (probe compound P3) came out at 0.06 µM.

In the case of `CC1(C)c2cc(F)cc(C(N)=O)c2C(=O)N1C1CCN(C2CCCCC2)CC1` [Compound 128, 2-(1-Cyclohexylpiperidin-4-yl)-6-fluoro-1,1-dimethyl-3-oxo-2,3-dihydro-1H-isoindole-4-carboxamide], the DC50 on PARP-2 is > 10 µM; on PARP-3, > 10 µM; on PARP-1 [2] (probe compound P1) it was 5.66 µM. The IC50 in data set [1] worked out at 4 µM. Also, at PARP-1 [2] (probe compound P3), the Kd was 0.87 µM.
